Assay [1] deals with glycolysis in whole blood. The experiment in a line: YSI glucose concentration over time in whole blood specimens with D,L glyceraldehyde added. The assay is classed as cell-based. The protocol:
FIG. 4 illustrates the YSI glucose concentration (mg/dL) of blood specimens containing EDTA at various final concentrations of a mixture of D,L glyceraldehydes at 0.0, 1.0, 5.0, 10.0 and 20.0 mM, obtained over 4 weeks of real time testing at about 2° C. to about 10° C.;
FIG. 5 illustrates the YSI 2300 (reference analyzer) glucose concentration (mg/dL) of blood specimens treated at various concentrations of D,L glyceraldehyde over 3 weeks at about 2° C. to about 10° C., wherein the control is an untreated blood sample;
In one method, a sample containing a cellular component, (i.e. RBCs, WBCs) is collected into a microfuge or vacuum tube, e.g. […]®, (such as supplied by Becton, Dickinson and Company, Franklin Lakes, N.J.). The initial concentration of glucose in the sample can be 50 […].
The vacuum tube may contain any appropriate anticoagulant agent known to one of ordinary skill, including oxalate, EDTA, citrate, heparin or combination thereof, to form a suspension. If used, the anticoagulant may be added together simultaneously, or sequentially, to the sample.
The resulting suspension is incubated at about 2° C. to about 30° C. and allowed to undergo glycolysis until the glucose level is less than about 20 mg/dL. […]

In assay [2] the test system is glycolysis in red blood cells. Put plainly: YSI glucose recovery of red blood cells treated with glyceraldehyde, washed and recombined with plasma and glucose. The assay is classed as cell-based. Particulars: RBCs treated with 20, 35 and 50 mM for 72 hours at 2-10 C; after 34 days (FIG. 6). The protocol:
FIG. 6 illustrates the YSI 2300 (reference analyzer) glucose concentration (mg/dL) of blood specimens at various concentrations of D,L glyceraldehyde respectively over 4 weeks at about 2° C. to about 10° C., wherein the control is untreated blood sample. Red blood cells were treated, washed and recombined with plasma and glucose.
RBC Treatment w/ Glyceraldehyde & Subsequent Removal
• 1) Employ fresh whole blood collected in standard anticoagulant (i.e. EDTA, heparin, sodium citrate) from a healthy adult population. Alternative blood sources may include bovine, avian, porcine, equine, goat, or alligator. • 2) Allow sufficient time for the natural enzymatic breakdown of glucose to occur (i.e. glycolysis). Deplete glucose concentration to less than about 20 mg/dl. Preferred storage at 2°-30° C. • 3) Separate RBC cellular component from plasma fraction via gravity settling and or centrifugation. If desired, the removed plasma fraction may be retained for reintroduction. • 4) Wash RBC cellular component with isotonic phosphate buffered saline solution (3×). Exchange diluent via centrifugation is preferred (15 minutes @ 1500 rpm (650×g). • 5) Adjust RBC concentration to approximately 4.0×10^6/mm^3±0.25×10^6/mm^3. […]

For assay [3], the system named is glycolysis in whole blood. To be noted: final concentration about 0.9 to 20 mM in blood sample; testing within 16 hours; cited from earlier work.

The source of these data is patent US20060211072A1, “Process, composition and kit for providing a stable whole blood calibrator/control” (Streck, Inc., priority 2005, published 2006).

Regarding `O=CC(O)CO` (racemic) [D,L glyceraldehyde, 2,3-dihydroxypropanal], the “YSI glucose concentration loss” value in assay [1] (20.0 mM D,L glyceraldehyde in EDTA, at 4 weeks, about 2-10 C (FIG. 4)) is “less than 10%”; in assay [1] (30.0 mM D,L glyceraldehyde in EDTA, glucose burned down then added back, at 3 weeks, about 2-10 C (FIG. 5)), “less than 3.5%”. Moreover, the “loss in glucose recovery” value in assay [2] is less than 5%.
As for `O=CC(O)CO` (stereo not shown) [glyceraldehyde, 2,3-dihydroxypropanal], the glucose loss result in assay [3] is “negligible glucose loss”.
